Values quoted from earlier work, collected in patent US20210153530A1, “FOOD PROTECTING COMPOSITION FOR MEAT, MEAT PRODUCTS AND DAIRY PRODUCTS” (priority 2018, published 2021).

How the values were obtained:
[1] = test system: coliform microorganisms and arerobic spore-forming microorganisms; settings: raw pork goulash, heat-treated
[2] = test system: moulds and yeasts; settings: raw pork, heat-treated and pasteurised

For `N=C(N)N` [guanidium], the “influence on coliform and aerobic spore-forming microorganisms” value [1] is listed as “not significantly influenced” and the “effect on growth of moulds and yeasts” value [2] is listed as “has an effect on the growth”.
